Measurements taken from PubChem BioAssay (NCI).
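48-hour exposure; five concentrations; linearly interpolated endpoints. GI50: concentration for 50% inhibition of growth. TGI: total growth inhibition.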

Key:
Assay in all cases: NCI anticancer screen, dose series, 48 h
UO-31 renal = system: UO-31 renal
HL-60(TB) leukemia = system: HL-60(TB) leukemia
SNB-75 CNS = system: SNB-75 CNS
KM12 colon = system: KM12 colon
UACC-62 melanoma = system: UACC-62 melanoma
UACC-257 melanoma = system: UACC-257 melanoma
RXF 393 renal = system: RXF 393 renal
MALME-3M melanoma = system: MALME-3M melanoma
MDA-MB-435 = system: MDA-MB-435
DU-145 prostate = system: DU-145 prostate

Structure (SMILES) | TGI (UO-31 renal) [µM] | TGI (HL-60(TB) leukemia) [µM] | TGI (SNB-75 CNS) [µM] | TGI (KM12 colon) [µM] | TGI (UACC-62 melanoma) [µM] | TGI (UACC-257 melanoma) [µM] | TGI (RXF 393 renal) [µM] | TGI (MALME-3M melanoma) [µM] | GI50 (MDA-MB-435) [µM] | TGI (MDA-MB-435) [µM] | GI50 (UO-31 renal) [µM] | GI50 (HL-60(TB) leukemia) [µM] | GI50 (SNB-75 CNS) [nM] | GI50 (MALME-3M melanoma) [µM] | GI50 (KM12 colon) [µM] | GI50 (UACC-62 melanoma) [µM] | GI50 (UACC-257 melanoma) [µM] | GI50 (DU-145 prostate) [µM] | TGI (DU-145 prostate) [µM] | GI50 (RXF 393 renal) [µM]
Cc1ccccc1NC(=O)CC(=O)NNCC(=O)Nc1nnc(-c2ccccc2)s1 | > 100 | 85.3 | 63.8 | > 100 | > 100 | > 100 | – | – | – | – | – | – | – | – | – | – | – | – | – | –
CCC12C=C(C(=O)OC)N3c4ccccc4C4CCN(CCC1)C2C43 (configuration not stated) | > 100 | > 100 | > 100 | > 100 | > 100 | > 100 | > 100 | 70.4 | – | – | – | – | – | – | – | – | – | – | – | –
CCCCC(C(=O)C(=O)Nc1ccccc1CC)C(=O)C(C)C (configuration not stated) | > 100 | > 100 | – | > 100 | > 100 | > 100 | – | > 100 | – | – | – | – | – | – | – | – | – | – | – | –
C=CCN(CC=C)Cc1c[nH]c2ccccc12 | > 100 | > 100 | > 100 | > 100 | 54.1 | 28 | – | 67.7 | 10.9 | 32.9 | 35.2 | 84.2 | > 100000 | 7.83 | 32.2 | 18.1 | 8.63 | – | – | –
COc1ccc(-c2c(Nc3ccccn3)nc3c(C4=CCCCC4)c(-c4ccccc4)[nH]n3c2=O)cc1 | > 100 | – | 21.6 | > 100 | 16.2 | 66.3 | 11.6 | 60.2 | 2.71 | > 100 | 2.19 | – | 2990 | 3.93 | 3.7 | 2.2 | 5 | 3.62 | > 100 | 2.55
ON1CCc2c([nH]c3ccccc23)C1c1ccc(Cl)cc1 (configuration not stated) | 91.7 | 79.5 | > 100 | 92.9 | > 100 | > 100 | 60.3 | 77.6 | – | – | – | – | – | – | – | – | – | – | – | –
O=C(/C=C(\[O-])c1ccccc1)CCCCCCC(=O)/C=C(\[O-])c1ccccc1.O=C(/C=C(\[O-])c1ccccc1)CCCCCCC(=O)/C=C(\[O-])c1ccccc1.O=C(/C=C(\[O-])c1ccccc1)CCCCCCC(=O)/C=C(\[O-])c1ccccc1.[Y+3].[Y+3] | > 50 | > 50 | 22.2 | > 50 | > 50 | > 50 | 37.4 | > 50 | – | – | > 50 | 14 | 8980 | > 50 | > 50 | 47.5 | 17.6 | – | – | 11
CN(C)c1ccc(/C=C2\CCc3ccccc3C2=O)cc1Br | > 100 | 58.5 | > 100 | > 100 | > 100 | > 100 | > 100 | > 100 | – | – | – | – | – | – | – | – | – | – | – | –
Nc1ccccc1C(=O)/C=C/c1ccccc1O | > 100 | 58.8 | 68.9 | > 100 | > 100 | 53 | > 100 | > 100 | – | – | – | – | – | – | – | – | – | – | – | –
O=C(O)c1cn(C2CC2)c2cc(N3CCN(C(=O)N(c4ccccc4)c4nc(-c5ccccc5)cs4)CC3)c(F)cc2c1=O | – | – | 2.8 | > 100 | – | – | 1.49 | – | – | – | – | – | 334 | – | 0.369 | – | – | 0.521 | > 100 | 0.272
O=C1c2ccccc2-c2c1c1c(O)cccc1n2Cc1ccccc1 | > 100 | – | – | 84.9 | 27.2 | 68.5 | 44.8 | 8.65 | 19.1 | > 100 | 21.8 | – | – | 2.76 | 15.8 | 7.35 | 17.7 | 11.9 | 64.7 | 11.5
O=C(CC1(O)C(=O)Nc2c(Cl)cc(Cl)cc21)c1cccc([N+](=O)[O-])c1 (configuration not stated) | 60.1 | – | 68.2 | > 100 | 44.7 | 44.8 | 62.7 | 35.9 | – | 16.3 | – | – | – | – | – | – | – | – | > 100 | –
COC(=O)C1CC(=O)O[C@H]1c1ccc(OC)c(OC)c1 (some centres not stated) | > 100 | > 100 | > 100 | > 100 | > 100 | > 100 | > 100 | > 100 | – | – | – | – | – | – | – | – | – | – | – | –
CN(C)c1ccc(/C=c2/sc3nc(=O)c(-c4ccccc4NC(=O)C(F)(F)F)nn3c2=O)cc1 | > 100 | – | > 100 | > 100 | > 100 | – | > 100 | > 100 | – | – | – | – | – | – | – | – | – | – | – | –
O/N=C1/C(=C/c2ccc(OCc3ccccc3)cc2)CCCC1C(NO)c1ccc(OCc2ccccc2)cc1 (configuration not stated) | > 100 | > 100 | 97.9 | > 100 | – | > 100 | 24.9 | > 100 | – | – | – | – | – | – | – | – | – | – | – | –
CC(=O)NC(CCCNC(=O)OCc1ccccc1)C(=O)NCc1ccccc1 (configuration not stated) | > 100 | – | > 100 | > 100 | > 100 | > 100 | > 100 | > 100 | – | – | – | – | – | – | – | – | – | – | – | –
CN(C)[C@@H]1C(=O)C(C(=O)NCc2nc3[nH]cnc(=S)c3[nH]2)=C(O)[C@@]2(O)C(=O)C3=C(O)c4c(O)cccc4[C@@](C)(O)[C@H]3C[C@@H]12 | > 100 | – | > 100 | > 100 | > 100 | > 100 | > 100 | > 100 | – | – | 3.69 | – | 1790 | > 100 | 5.01 | 2.91 | > 100 | 4.43 | > 100 | 26.1
O=[N+]([O-])c1ccc(/C=C/c2ccc(/C=C/c3ccc([N+](=O)[O-])cc3[N+](=O)[O-])cc2)c([N+](=O)[O-])c1 | > 100 | > 100 | > 100 | > 100 | > 100 | > 100 | > 100 | > 100 | – | – | – | – | – | – | – | – | – | – | – | –
CCOC(OCC)(OCC)C(Br)CC (configuration not stated) | > 100 | > 100 | > 100 | > 100 | > 100 | > 100 | > 100 | > 100 | – | – | – | – | – | – | – | – | – | – | – | –
